Results: patent US9102925B2, “Compositions and methods for treating or preventing conditions and diseases associated with Mannheimia haemolytica” (Washington State University, priority 2009, dated 2015)
“And” between values parts separate entries of the source, which are not always exact repeats. Identical values can stand only once. “Also recorded” adds a separate entry of the source. Peptide text beside a SMILES is read from it.

Assays:
[1] = molecular target: T1, M. haemolytica leukotoxin (Lkt) (Mannheimia haemolytica, UniProt P16535); test: cell-based
[2] = molecular target: T1, M. haemolytica leukotoxin (Lkt)
[3] = test system: M. haemolytica serotype-1 strain SH789; test: Calf challenge model: endobronchial inoculation of M. haemolytica with or without peptide; assay type: in vivo, Mannheimia haemolytica; settings: for Gross pneumonic lesions as % of total lung volume, Lesion (%), individual calf: 2 mg peptide with 5×10^9 CFU M. haemolytica endobronchially, necropsy 90 hours post-inoculation; for Number of M. haemolytica isolated from the lungs at necropsy, individual calf / Number of M. haemolytica isolated from the lungs at necropsy, Mean / Gross pneumonic lesions as % of total lung volume, Mean (%): 2 mg peptide with 5×10^9 CFU endobronchially; for Duration of nasal discharge post-inoculation: study period 90 hours; for Number of M. haemolytica isolated from the lungs at necropsy, Mean: group mean; for Number of M. haemolytica isolated from the lungs at necropsy, Mean / Gross pneumonic lesions as % of total lung volume, Mean (%): 4 calves; for Gross pneumonic lesions as % of total lung volume, Mean (%): group mean±SEM, 90 hours
Procedure: M. Haemolytica serotype-1 strain SH789, isolated from the pneumonic lung of a calf, was streaked on blood agar plate and incubated overnight at 37° C. The following day few colonies were transferred to 3 ml of pre-warmed brain heart infusion (BHI) broth and incubated for 3 hours at 37° C. with constant shaking (200 cycles/minute). Two BHI agar plates were ‘lawned’ with this bacterial culture using sterile cotton swabs and incubated overnight at 37° C. The following day (day of inoculation) M. haemolytica was harvested from the BHI agar plates and transferred to 40 ml of pre-warmed BHI broth in a 250 ml flask, and incubated for 2.5 hours at 37° C. with constant shaking to obtain cultures in the logarithmic phase of growth. The culture was centrifuged at 6000×g at 20° C. for 30 minutes and the pellet was washed once with RPMI 1640 (without phenol red) medium. The bacterial pellet was re-suspended in 4 ml of RPMI 1640 (without phenol red), and 1 ml of this culture was added to 50 ml of pre-warmed RPMI 1640 (without phenol red) containing L-glutamine (1 ml L-glutamine/100 ml RPMI) in a 250 ml flask. Bacteria were incubated for 3 hours at 37° C. with constant shaking to obtain logarithmic phase culture and the optical density (OD) was measured. The culture was appropriately diluted to obtain a concentration of 1×10^9 CFU of M. haemolytica per ml. Five ml of this preparation per calf was used for endobronchial challenge. The bacterial concentration was confirmed the following day by culturing diluted aliquots of the inoculum on BHI agar and counting the resulting colonies.
The peptide (P17) containing amino acids 5-17 of bovine CD18 (NH2-RPQLLLLAGLLAL-OH) (SEQ ID NO.:71), and the peptide (PSC) containing the same amino acids as peptide P17 but in a randomly scrambled sequence (NH2-LRALLPLQLLAGL-OH) (SEQ ID NO.:72), were synthesized at Neopeptide (Cambridge, Mass.). Both peptides were re-suspended in dimethysulfoxide (ATCC) at a concentration of 20 mg/ml and stored at −20° C. until used. Based on the results of in vitro neutralization of Lkt by peptide P17, each calf was endobronchially inoculated with 2 mg of peptide in 5 ml of RPMI mixed with 5×10^9 CFU of M. haemolytica in 5 ml of RPMI.
All experimental protocols were approved by the Institutional Animal Care and Use Committee (IACUC) at Washington State University before the onset of the study. Twelve Holstein calves were randomly assigned to three experimental groups. Calves were matched for age when assigned into three groups. Prior to inoculation, serum samples and pharyngeal and nasal swabs were collected from all the calves. Group I calves received endobronchial injections of 5×10^9 CFU of M. haemolytica in 10 ml of RPMI. Group II calves received 5×10^9 CFU of M. haemolytica and 2 mg of peptide PSC in 10 ml of RPMI. Group III calves received 5×10^9 CFU of M. haemolytica and 2 mg of peptide P17 in 10 ml of RPMI. The inoculum was flushed down with an additional 10 ml of RPMI in all calves. Clinical disease in each calf was scored at different time points post-inoculation.
Physical examination of each calf was performed immediately prior to experimental infection and at 6, 18, 24, 42, 48, 66, 72, and 90 hours post-inoculation. Signs of clinical disease were allocated points according to the scoring system followed by Malazdrewich et al (2003; Table 3).
On necropsy lungs were removed and gross pneumonic lesion development in each lobe of lung was observed. The entire lung from each animal was sliced at 1 cm thickness and the total and pneumonic lesion areas were traced onto transparent acetate sheets. The traced portions were scanned into ImgaeJ, NIH Image (National Institute of Health; Nethesda, Md.), which was used to measure areas representing both the total serial section and the gross pneumonic lesions within it. […]

Molecule | IC50 [1] [µM] | Leukotoxic activity of supernatant fluids from M. haemolytica cultures incubated with peptide [2] | Gross pneumonic lesions as % of total lung volume, Lesion (%), individual calf ([3]; calves) | Number of M. haemolytica isolated from the lungs at necropsy, individual calf ([3]; calves, necropsy 90 hours) | Duration of nasal discharge post-inoculation ([3]; calves) | Number of M. haemolytica isolated from the lungs at necropsy, Mean ([3]; necropsy 90 hours) | Gross pneumonic lesions as % of total lung volume, Mean (%) [3] [%] | M. haemolytica in lungs, fold less than in Group I (bacteria only) and Group II (PSC) ([3]; calves, necropsy 90 hours, P<0.001) | Gross pneumonic lesions (percent lung volume) compared between groups ([3]; calves, necropsy 90 hours, P=0.9) | Mean clinical score compared with other groups at 24 hours post-inoculation ([3]; calves, 24 hours post-inoculation, P<0.05) | Total clinical disease scores compared with Group I and II ([3]; calves, scored 6 to 90 hours post-inoculation) | Inhibition of Lkt-induced cytolysis of bovine PMNs [1] | Inhibition of Lkt-induced cytolysis of ruminant leukocytes [1]
CSCC[C@H](N)C(=O)N[C@@H](CC(C)C)C(=O)N[C@@H](CCCNC(=N)N)C(=O)N[C@@H](CCC(N)=O)C(=O)N[C@@H](CCCNC(=N)N)C(=O)N1CCC[C@H]1C(=O)N[C@@H](CCC(N)=O)C(=O)N[C@@H](CC(C)C)C(=O)N[C@@H](CC(C)C)C(=O)N[C@@H](CC(C)C)C(=O)N[C@@H](CC(C)C)C(=O)N[C@@H](C)C(=O)NCC(=O)N[C@@H](CC(C)C)C(=O)N[C@@H](CC(C)C)C(=O)N[C@@H](C)C(=O)N[C@@H](CC(C)C)C(=O)N[C@@H](CCC(N)=O)C(=O)N[C@@H](CO)C(=O)N[C@H](C(=O)O)C(C)C [P1] (H-MLRQRPQLLLLAGLLALQSV-OH) | 11.6 | – | – | – | – | – | – | – | – | – | – | – | –
CC(C)C[C@H](NC(=O)CNC(=O)[C@H](C)NC(=O)[C@H](CC(C)C)NC(=O)[C@H](CC(C)C)NC(=O)[C@H](CC(C)C)NC(=O)[C@H](CC(C)C)NC(=O)[C@H](CCC(N)=O)NC(=O)[C@@H]1CCCN1C(=O)[C@@H](N)CCCNC(=N)N)C(=O)N[C@@H](CC(C)C)C(=O)N[C@@H](C)C(=O)N[C@@H](CC(C)C)C(=O)N[C@@H](CCC(N)=O)C(=O)N[C@@H](CO)C(=O)N[C@H](C(=O)N[C@@H](CC(C)C)C(=O)N[C@@H](CO)C(=O)N[C@@H](CCC(N)=O)C(=O)N[C@@H](CCC(=O)O)C(=O)O)C(C)C [P5] (H-RPQLLLLAGLLALQSVLSQE-OH) | 5.55 | – | – | – | – | – | – | – | – | – | – | – | –
NH2-LRALLPLQLLAGL-OH (H-LRALLPLQLLAGL-OH) [PSC, reference compound] | – | had significant leukotoxic activity | 4.07% and 10.70% and 9.01% and 24.57% | 1.89 × 10^7 CFU per gram of lung tissue and 6.73 × 10^5 CFU per gram of lung tissue and 6.50 × 10^7 CFU per gram of lung tissue and 1.87 × 10^7 CFU per gram of lung tissue | throughout the study period | 2.58 ± 1.374 × 10^7 CFU per gram of lung tissue | 12.09 ± 4.39 | – | – | – | – | – | –
NH2-RPQLLLLAGLLAL-OH (H-RPQLLLLAGLLAL-OH; listed as Bos taurus) [P17] | – | did not exhibit significant leukotoxic activity | 15.67% and 2.7% and 13.22% and 8.51% | 5.29 × 10^3 CFU per gram of lung tissue and 4.92 × 10^2 CFU per gram of lung tissue and 5.70 × 10^4 CFU per gram of lung tissue and 8.00 × 10^2 CFU per gram of lung tissue | up to 24 hours | 1.589 ± 1.374 × 10^4 CFU per gram of lung tissue | 10.53 ± 3.02 | 100- to 1000 fold and 100 to 1000 fold | not statistically significant; also recorded: no less than those in calves inoculated with the control peptide PSC | statistically significantly lower | lower than those for group I and II at all time points except 48 hours | strongly inhibited | effectively inhibited
